{"source": "patent US20250188075A1", "about": "“SUBSTITUTED HETEROCYCLIC CSNK1 INHIBITORS” (The Broad Institute, Inc., priority 2022, published 2025)", "key": {"human CSNK1A1": {"target": "human CSNK1A1 (Homo sapiens (Human), UniProt P48729)", "sequence (P48729 whole entry)": "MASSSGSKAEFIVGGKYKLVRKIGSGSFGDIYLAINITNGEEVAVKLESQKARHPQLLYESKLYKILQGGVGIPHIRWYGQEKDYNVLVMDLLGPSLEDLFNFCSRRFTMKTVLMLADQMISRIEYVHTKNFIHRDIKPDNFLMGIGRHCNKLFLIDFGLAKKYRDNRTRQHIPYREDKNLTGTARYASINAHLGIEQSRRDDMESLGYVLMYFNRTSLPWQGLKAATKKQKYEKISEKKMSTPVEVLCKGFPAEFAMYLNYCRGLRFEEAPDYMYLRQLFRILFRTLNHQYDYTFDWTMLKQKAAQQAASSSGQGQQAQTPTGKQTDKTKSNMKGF", "assay": "CSNK1A1 high ATP assay (ADP-Glo, 1 mM ATP)", "type": "biochemical", "conditions": "median, read-out: CSNK1A1 High ATP assay IC50 [mol/l] (median)", "description": "CSNK1A1-inhibitory activity of compounds of the present invention in presence of 1 mM adenosine-tri-phosphate (ATP) was quantified employing the CSNK1A1-high-ATP-assay as described in the following paragraphs. In essence, the enzyme activity is measured by quantification of the adenosine-di-phosphate (ADP), which is generated as a co-product of the enzyme reaction, via the “ADP-Glo™ Kinase Assay” kit from the company Promega. This detection system works as follows: In a first step the ATP not consumed in the kinase reaction is quantitatively converted to CAMP employing an adenylate cyclase (“ADP-Glo-reagent”), then the adenylate cyclase is stopped and the ADP generated in the kinase reaction converted to ATP which generates in a luciferase-based reaction a glow-luminescence signal (“Kinase Detection Reagent”).\n(§1) Recombinant fusion protein of N-terminal Glutathion-S-Transferase (GST) and full-length human CSNK1A1, expressed by baculovirus infected insect cells and purified via Glutathion affinity chromatography, was purchased from Life Technologies (product no. PV4174) and used as enzyme. As substrate for the kinase reaction the biotinylated peptide biotin-Ahx-KRRRAL-pS-VASLPGL (C-terminus in amide form) was used which can be purchased e.g. from the company Biosyntan (Berlin-Buch, Germany).\nFor the assay 50 nl of a 100 fold concentrated solution of the test compound in DMSO was pipetted into a white low volume 384-well microtiter plate (Greiner Bio-One, Frickenhausen, Germany), 2 μL of a solution of CSNK1A1 in aqueous assay buffer [50 mM HEPES pH 7.5, 10% (v/v) glycerol, 10 mM MgCl2, 50 mM NaCl, 1 mM dithiothreitol, 0.01% (w/v) bovine serum albumin, 0.01% (v/v) Triton X-100] were added and the mixture was incubated for 15 min at 22° C. to allow pre-binding of the test compounds to the enzyme before the start of the kinase reaction. Then the kinase reaction was started by the addition of 3 μL of a solution of ATP (1.67 mM=>final conc. in the 5 μL assay volume is 1 mM) and peptide substrate (167 μM=>final conc. in the 5 μL assay volume is 100 μM) in assay buffer and the resulting mixture was incubated for a reaction time of 30 min at 22° C. The concentration of CSNK1A1 was adjusted depending of the activity of the enzyme lot and was chosen appropriate to have the assay in the linear range, a typical concentration is about 0.4 ng/μL. The reaction was stopped by the addition of 2.5 μL of “ADP-Glo-reagent” (1:1.5 fold diluted with water) and the resulting mixture was incubated at 22° C. for 1 h to convert the ATP not consumed in the kinase reaction completely to CAMP. Subsequently 2.5 μL of the “kinase detection reagent” (1.2 fold more concentrated than recommended by the producer) were added, the resulting mixture was incubated at 22° C. for 1 h and then the luminescence measured with a suitable measurement instrument (e.g. Viewlux™ from Perkin-Elmer). The amount of emitted light was taken as a measure for the amount of ADP generated and thereby for the activity of the CSNK1A1.\n(§2) The data were normalised (enzyme reaction without inhibitor=0% inhibition, all other assay components but no enzyme=100% inhibition)."}, "human CSNK1D": {"target": "human CSNK1D (Homo sapiens (Human), UniProt P48730)", "sequence (P48730 whole entry)": "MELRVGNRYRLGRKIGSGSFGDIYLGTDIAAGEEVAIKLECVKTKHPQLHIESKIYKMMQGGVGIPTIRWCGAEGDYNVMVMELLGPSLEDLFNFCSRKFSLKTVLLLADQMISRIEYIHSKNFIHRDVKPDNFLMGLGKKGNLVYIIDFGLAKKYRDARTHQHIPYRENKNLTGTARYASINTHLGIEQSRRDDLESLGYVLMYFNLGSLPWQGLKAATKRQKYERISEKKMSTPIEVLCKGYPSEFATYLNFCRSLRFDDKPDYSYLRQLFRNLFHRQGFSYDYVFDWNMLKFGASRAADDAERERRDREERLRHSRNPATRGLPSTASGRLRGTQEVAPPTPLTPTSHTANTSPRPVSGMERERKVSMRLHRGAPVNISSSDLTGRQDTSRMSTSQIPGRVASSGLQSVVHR", "assay": "CSNK1D assay (ADP-Glo, 1 μM ATP)", "type": "biochemical", "conditions": "median, read-out: CSNK1D IC50 [mol/l] (median)", "description": "CSNK1D-inhibitory activity of compounds of the present invention in presence of 1 μM adenosine-tri-phosphate (ATP) was quantified employing the CSNK1D assay as described in the following paragraphs. In essence, the enzyme activity is measured by quantification of the adenosine-di-phosphate (ADP), which is generated as a co-product of the enzyme reaction, via the “ADP-Glo™ Kinase Assay” kit from the company Promega. This detection system works as follows: In a first step the ATP not consumed in the kinase reaction is quantitatively converted to CAMP employing an adenylate cyclase (“ADP-Glo-reagent”), then the adenylate cyclase is stopped and the ADP generated in the kinase reaction converted to ATP which generates in a luciferase-based reaction a glow-luminescence signal (“Kinase Detection Reagent”).\nas §1, with “CSNK1D,” for “CSNK1A1,”, “PV3665)” for “PV4174)”, “Btn-Ahx-SGSEGDSESGEEEG” for “biotin-Ahx-KRRRAL-pS-VASLPGL”\nFor the assay 50 nl of a 100-fold concentrated solution of the test compound in DMSO was pipetted into a white 1536-well microtiter plate (Greiner Bio-One, Frickenhausen, Germany), 2 μL of a solution of CSNK1D in aqueous assay buffer [50 mM HEPES pH 7.5, 10% (v/v) glycerol, 10 mM MgCl2, 50 mM NaCl, 1 mM dithiothreitol, 0.01% (w/v) bovine serum albumin, 0.01% (v/v) Triton X-100] were added and the mixture was incubated for 15 min at 22° C. to allow pre-binding of the test compounds to the enzyme before the start of the kinase reaction. Then the kinase reaction was started by the addition of 3 μL of a solution of ATP (1.67 μM=>final conc. in the 5 μL assay volume is 1 μM) and peptide substrate (50 μM=>final conc. in the 5 μL assay volume is 30 μM) in assay buffer and the resulting mixture was incubated for a reaction time of 30 min at 22° C. The concentration of CSNK1D was adjusted depending of the activity of the enzyme lot and was chosen appropriate to have the assay in the linear range, a typical concentration is about 0.5 ng/μL. The reaction was stopped by the addition of 2.5 μL of “ADP-Glo-reagent” (1:1.5 fold diluted with water) and the resulting mixture was incubated at 22° C. for 1 h to convert the ATP not consumed in the kinase reaction completely to CAMP. Subsequently 2.5 μL of the “kinase detection reagent” (1.2 fold more concentrated than recommended by the producer) were added, the resulting mixture was incubated at 22° C. for 1 h and then the luminescence measured with a suitable measurement instrument (e.g. Viewlux™ from Perkin-Elmer). The amount of emitted light was taken as a measure for the amount of ADP generated and thereby for the activity of the CSNK1D.\nas §2"}}}
{"smiles": "O=C(Cc1cc2ccccn2n1)Nc1cc(-c2[nH]c3cccnc3c2-c2ccccn2)ccn1", "note": "[Example 15, 2-pyrazolo[1,5-a]pyridin-2-yl-N-[4-[3-(2-pyridyl)-^1H-pyrrolo[3,2-b]pyridin-2-yl]-2-pyridyl]acetamide]", "values": [{"measurement": "IC50", "setting": "human CSNK1A1", "value": 24.2, "unit": "nM"}, {"measurement": "IC50", "setting": "human CSNK1D", "value": 3.75, "unit": "nM"}]}
{"smiles": "O=C(Cc1cnc2ccccn12)Nc1cc(-c2[nH]c3cccnc3c2-c2ccccn2)ccn1", "note": "[Example 1, 2-imidazo[1,2-a]pyridin-3-yl-N-[4-[3-(2-pyridyl)-^1H-pyrrolo[3,2-b]pyridin-2-yl]-2-pyridyl]acetamide]", "values": [{"measurement": "IC50", "setting": "human CSNK1A1", "value": 38.5, "unit": "nM"}, {"measurement": "IC50", "setting": "human CSNK1D", "value": 11.4, "unit": "nM"}]}
{"smiles": "Cc1nc(C)c(CC(=O)Nc2cc(-c3[nH]c4cccnc4c3-c3ccccn3)ccn2)s1", "note": "[Example 18, 2-(2,4-dimethylthiazol-5-yl)-N-[4-[3-(2-pyridyl)-^1H-pyrrolo[3,2-b]pyridin-2-yl]-2-pyridyl]acetamide]", "values": [{"measurement": "IC50", "setting": "human CSNK1A1", "value": 14.1, "unit": "nM"}, {"measurement": "IC50", "setting": "human CSNK1D", "value": 3.8, "unit": "nM"}]}
{"smiles": "Cc1nn(C)c(C)c1CC(=O)Nc1cc(-c2[nH]c3cccnc3c2-c2ccccn2)ccn1", "note": "[Example 17, N-[4-[3-(2-pyridyl)-^1H-pyrrolo[3,2-b]pyridin-2-yl]-2-pyridyl]-2-(1,3,5-trimethylpyrazol-4-yl)acetamide]", "values": [{"measurement": "IC50", "setting": "human CSNK1A1", "value": 124, "unit": "nM"}, {"measurement": "IC50", "setting": "human CSNK1D", "value": 6.87, "unit": "nM"}]}
{"smiles": "Cn1cc(CC(=O)Nc2cc(-c3[nH]c4cccnc4c3-c3ccccn3)ccn2)cn1", "note": "[Example 2, 2-(1-methylpyrazol-4-yl)-N-[4-[3-(2-pyridyl)-^1H-pyrrolo[3,2-b]pyridin-2-yl]-2-pyridyl]acetamide]", "values": [{"measurement": "IC50", "setting": "human CSNK1A1", "value": 31.6, "unit": "nM"}, {"measurement": "IC50", "setting": "human CSNK1D", "value": 11.1, "unit": "nM"}]}
{"smiles": "Cn1cnc(CC(=O)Nc2cc(-c3[nH]c4cccnc4c3-c3ccccn3)ccn2)c1", "note": "[Example 5, 2-(1-methylimidazol-4-yl)-N-[4-[3-(2-pyridyl)-^1H-pyrrolo[3,2-b]pyridin-2-yl]-2-pyridyl]acetamide]", "values": [{"measurement": "IC50", "setting": "human CSNK1A1", "value": 589, "unit": "nM"}, {"measurement": "IC50", "setting": "human CSNK1D", "value": 13.1, "unit": "nM"}]}
{"smiles": "O=C(Nc1cc(-c2[nH]c3c(OCC(F)F)ncnc3c2-c2ccccn2)ccn1)[C@@H](CC(F)F)c1ccc(F)cc1", "note": "[Example C3, reference compound]", "values": [{"measurement": "IC50", "setting": "human CSNK1A1", "value": 8.84, "unit": "nM"}, {"measurement": "IC50", "setting": "human CSNK1D", "value": 3.27, "unit": "nM"}]}
{"smiles": "Cc1nc(CC(=O)Nc2cc(-c3[nH]c4cccnc4c3-c3ccccn3)ccn2)cs1", "note": "[Example 3, 2-(2-methylthiazol-4-yl)-N-[4-[3-(2-pyridyl)-^1H-pyrrolo[3,2-b]pyridin-2-yl]-2-pyridyl]acetamide]", "values": [{"measurement": "IC50", "setting": "human CSNK1A1", "value": 30.8, "unit": "nM"}, {"measurement": "IC50", "setting": "human CSNK1D", "value": 5.01, "unit": "nM"}]}
{"smiles": "Cc1noc(C)c1CC(=O)Nc1cc(-c2[nH]c3cccnc3c2-c2ccccn2)ccn1", "note": "[Example 12, 2-(3,5-dimethylisoxazol-4-yl)-N-[4-[3-(2-pyridyl)-^1H-pyrrolo[3,2-b]pyridin-2-yl]-2-pyridyl]acetamide]", "values": [{"measurement": "IC50", "setting": "human CSNK1A1", "value": 66.9, "unit": "nM"}, {"measurement": "IC50", "setting": "human CSNK1D", "value": 5.02, "unit": "nM"}]}
